Measurements: ChEMBL document CHEMBL1201862, “PubChem BioAssay data set” (2004)
Active and inactive are the calls of the source.

Legend:
Cytochrome P450 2C19 = Cytochrome P450 2C19 (Homo sapiens, UniProt P33261); assay: Cytochrome panel assay with activity outcomes. Panel member name: p450-cyp2c19 Compounds with AC50 equal or less than 10 uM are considered active; type: functional
Cytochrome P450 1A2 = biological target: T1, Cytochrome P450 1A2 (Homo sapiens, UniProt P05177);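 note: PubChem cytochrome P450 panel assay, CYP1A2 panel member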
T1 sequence (P05177 whole entry): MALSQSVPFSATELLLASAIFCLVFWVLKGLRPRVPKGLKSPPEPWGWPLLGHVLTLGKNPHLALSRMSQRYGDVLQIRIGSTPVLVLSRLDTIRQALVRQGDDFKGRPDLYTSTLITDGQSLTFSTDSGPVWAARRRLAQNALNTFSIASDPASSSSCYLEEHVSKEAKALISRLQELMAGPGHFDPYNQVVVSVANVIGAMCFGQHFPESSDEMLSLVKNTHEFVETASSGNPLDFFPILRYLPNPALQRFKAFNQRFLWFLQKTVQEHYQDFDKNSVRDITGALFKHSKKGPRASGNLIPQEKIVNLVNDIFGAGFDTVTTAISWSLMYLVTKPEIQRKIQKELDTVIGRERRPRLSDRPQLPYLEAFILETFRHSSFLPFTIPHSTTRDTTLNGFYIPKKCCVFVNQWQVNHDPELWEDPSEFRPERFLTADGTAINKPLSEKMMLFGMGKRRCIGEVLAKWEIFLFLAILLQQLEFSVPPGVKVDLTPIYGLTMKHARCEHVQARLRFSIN

Cytochrome P450 3A4 = Cytochrome P450 3A4 (Homo sapiens, UniProt P08684);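 note: CYP3A4 tested as one member of a cytochrome P450 panel screen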
Cytochrome P450 3A4, sequence (P08684 whole entry): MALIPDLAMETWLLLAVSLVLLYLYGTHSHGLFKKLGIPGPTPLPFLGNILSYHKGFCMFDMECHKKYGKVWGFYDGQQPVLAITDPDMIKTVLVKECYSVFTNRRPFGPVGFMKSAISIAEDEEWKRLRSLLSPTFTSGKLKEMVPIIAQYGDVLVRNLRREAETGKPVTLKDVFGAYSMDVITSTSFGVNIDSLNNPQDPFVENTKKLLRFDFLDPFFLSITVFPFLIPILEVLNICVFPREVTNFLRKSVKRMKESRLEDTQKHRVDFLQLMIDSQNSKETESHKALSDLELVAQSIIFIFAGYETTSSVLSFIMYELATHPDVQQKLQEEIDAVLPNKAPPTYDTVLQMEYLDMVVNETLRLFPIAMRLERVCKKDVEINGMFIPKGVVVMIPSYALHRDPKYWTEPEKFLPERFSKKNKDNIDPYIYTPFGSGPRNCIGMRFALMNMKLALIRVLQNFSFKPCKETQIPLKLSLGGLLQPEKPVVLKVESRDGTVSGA

HeLa = assay: HeLa cell cytotoxicity, dose response, cytotoxicity control for MITF activator project, CellTiter-Glo luminescence, cherry-pick samples (AID 540259); type: functional, cell-based; conditions: Homo sapiens
Escherichia coli = assay: microbe, parasite or virus in culture
Cytochrome P450 2C9 = Cytochrome P450 2C9 (Homo sapiens, UniProt P11712)
Cytochrome P450 2C9, sequence (P11712 whole entry): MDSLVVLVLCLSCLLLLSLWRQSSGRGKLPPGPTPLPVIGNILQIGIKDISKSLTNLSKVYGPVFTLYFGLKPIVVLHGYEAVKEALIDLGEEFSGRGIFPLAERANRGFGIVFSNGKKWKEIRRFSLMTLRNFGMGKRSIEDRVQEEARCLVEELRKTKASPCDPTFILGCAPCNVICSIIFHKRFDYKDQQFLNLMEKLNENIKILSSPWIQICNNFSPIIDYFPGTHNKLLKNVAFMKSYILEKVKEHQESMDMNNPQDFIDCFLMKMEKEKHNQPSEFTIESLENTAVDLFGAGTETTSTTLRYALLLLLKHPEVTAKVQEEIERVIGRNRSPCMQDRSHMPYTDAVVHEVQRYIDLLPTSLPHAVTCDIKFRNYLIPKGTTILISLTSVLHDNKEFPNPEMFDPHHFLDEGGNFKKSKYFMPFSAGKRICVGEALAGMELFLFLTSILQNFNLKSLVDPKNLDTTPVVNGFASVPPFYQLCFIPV

HEK293 [1] = assay: cells; conditions: Homo sapiens
HEK293 [2] = assay: cells; conditions: Homo sapiens; remark: listed apart in the source
Exodeoxyribonuclease V = biological target: T2, Exodeoxyribonuclease V (Escherichia coli (strain K12), UniProt P04993+P07648+P08394); assay: E. coli RecBCD inhibitors, dose response, counter-screen for AddAB inhibitor project, absorbance, V66 E. coli, mutant T4 phage (AID 492957); type: functional, cell-based, Escherichia coli str. K-12 substr. MG1655
T2 sequence (P04993 whole entry): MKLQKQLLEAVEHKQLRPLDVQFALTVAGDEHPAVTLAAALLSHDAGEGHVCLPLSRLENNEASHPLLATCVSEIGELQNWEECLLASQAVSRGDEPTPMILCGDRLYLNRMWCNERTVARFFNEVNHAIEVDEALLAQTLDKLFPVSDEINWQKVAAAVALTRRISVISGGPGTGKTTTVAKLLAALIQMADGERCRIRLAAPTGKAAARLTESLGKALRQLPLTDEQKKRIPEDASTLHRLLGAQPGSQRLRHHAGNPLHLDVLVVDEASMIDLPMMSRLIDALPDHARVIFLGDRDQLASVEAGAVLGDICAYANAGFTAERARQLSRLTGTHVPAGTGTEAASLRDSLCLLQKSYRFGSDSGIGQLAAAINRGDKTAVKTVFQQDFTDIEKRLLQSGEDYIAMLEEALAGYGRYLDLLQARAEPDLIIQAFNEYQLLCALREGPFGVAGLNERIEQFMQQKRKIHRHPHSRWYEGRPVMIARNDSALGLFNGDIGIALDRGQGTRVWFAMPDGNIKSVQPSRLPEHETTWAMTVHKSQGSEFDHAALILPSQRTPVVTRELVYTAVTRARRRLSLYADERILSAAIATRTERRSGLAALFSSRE
T2 sequence (P07648 whole entry): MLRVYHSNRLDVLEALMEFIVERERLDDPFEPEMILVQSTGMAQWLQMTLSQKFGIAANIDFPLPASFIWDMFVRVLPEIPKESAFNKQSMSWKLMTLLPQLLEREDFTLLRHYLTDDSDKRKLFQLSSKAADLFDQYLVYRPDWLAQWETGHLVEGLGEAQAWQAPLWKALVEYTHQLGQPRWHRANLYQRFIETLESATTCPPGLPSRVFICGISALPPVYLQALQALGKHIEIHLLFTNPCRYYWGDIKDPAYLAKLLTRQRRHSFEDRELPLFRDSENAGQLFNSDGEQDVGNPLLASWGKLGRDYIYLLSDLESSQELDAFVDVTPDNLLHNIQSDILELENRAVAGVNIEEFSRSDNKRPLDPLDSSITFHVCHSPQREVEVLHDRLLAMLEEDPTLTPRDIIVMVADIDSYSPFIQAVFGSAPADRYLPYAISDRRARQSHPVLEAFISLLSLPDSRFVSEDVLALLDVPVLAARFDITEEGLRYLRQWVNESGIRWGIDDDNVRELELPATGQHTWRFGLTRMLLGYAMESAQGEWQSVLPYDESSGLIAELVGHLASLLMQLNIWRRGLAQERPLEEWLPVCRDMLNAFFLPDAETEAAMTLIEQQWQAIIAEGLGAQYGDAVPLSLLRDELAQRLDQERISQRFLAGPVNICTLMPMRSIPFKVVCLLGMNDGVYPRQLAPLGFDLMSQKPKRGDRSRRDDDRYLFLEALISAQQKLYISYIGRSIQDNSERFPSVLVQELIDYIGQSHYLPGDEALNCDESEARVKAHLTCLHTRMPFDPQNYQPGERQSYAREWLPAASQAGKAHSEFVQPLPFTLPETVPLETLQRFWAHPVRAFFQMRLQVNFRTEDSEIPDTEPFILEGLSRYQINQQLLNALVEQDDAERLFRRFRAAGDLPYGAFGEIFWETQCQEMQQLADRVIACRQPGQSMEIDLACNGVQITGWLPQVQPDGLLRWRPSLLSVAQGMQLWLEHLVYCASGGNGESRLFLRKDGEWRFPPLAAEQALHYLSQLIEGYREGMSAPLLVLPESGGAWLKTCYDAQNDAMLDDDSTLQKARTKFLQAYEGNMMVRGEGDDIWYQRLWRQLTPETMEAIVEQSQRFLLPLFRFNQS
T2 sequence (P08394 whole entry): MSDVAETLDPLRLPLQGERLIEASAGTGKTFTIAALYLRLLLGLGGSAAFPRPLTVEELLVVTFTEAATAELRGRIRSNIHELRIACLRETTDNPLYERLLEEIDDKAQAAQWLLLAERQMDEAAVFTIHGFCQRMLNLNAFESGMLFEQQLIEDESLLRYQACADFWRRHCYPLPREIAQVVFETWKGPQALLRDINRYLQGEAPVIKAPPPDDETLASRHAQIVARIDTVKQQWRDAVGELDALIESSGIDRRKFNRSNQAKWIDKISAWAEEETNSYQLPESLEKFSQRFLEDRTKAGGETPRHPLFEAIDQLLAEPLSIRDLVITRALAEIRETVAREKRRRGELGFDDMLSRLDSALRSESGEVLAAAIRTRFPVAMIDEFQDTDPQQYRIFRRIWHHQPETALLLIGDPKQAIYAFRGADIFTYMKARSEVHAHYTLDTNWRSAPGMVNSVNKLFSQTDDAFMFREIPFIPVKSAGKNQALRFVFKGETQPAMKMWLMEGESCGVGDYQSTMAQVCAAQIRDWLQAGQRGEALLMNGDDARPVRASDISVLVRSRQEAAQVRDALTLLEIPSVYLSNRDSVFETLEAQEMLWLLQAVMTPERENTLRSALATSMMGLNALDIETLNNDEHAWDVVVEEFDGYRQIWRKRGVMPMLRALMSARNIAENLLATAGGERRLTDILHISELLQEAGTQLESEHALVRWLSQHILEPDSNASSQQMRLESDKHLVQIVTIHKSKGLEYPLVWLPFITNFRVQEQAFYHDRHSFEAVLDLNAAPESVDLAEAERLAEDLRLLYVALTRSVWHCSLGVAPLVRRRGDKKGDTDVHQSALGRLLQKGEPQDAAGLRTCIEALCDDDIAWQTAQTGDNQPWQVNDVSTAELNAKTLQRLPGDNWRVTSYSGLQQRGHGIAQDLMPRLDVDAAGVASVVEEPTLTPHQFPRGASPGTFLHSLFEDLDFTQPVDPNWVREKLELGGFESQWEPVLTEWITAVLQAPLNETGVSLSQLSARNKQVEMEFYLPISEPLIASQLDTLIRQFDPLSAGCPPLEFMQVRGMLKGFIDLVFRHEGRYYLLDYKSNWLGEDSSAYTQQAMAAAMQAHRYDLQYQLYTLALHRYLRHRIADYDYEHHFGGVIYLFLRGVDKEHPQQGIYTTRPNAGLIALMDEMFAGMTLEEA

[3] = Counterscreen for AddAB inhibitors: absorbance-based bacterial cell-based high throughput dose response assay for inhibitors of bacterial viability. [Related pubchem assays (depositor defined):AID435030, AID449728, AID449731, AID488942, AID488955, AID488956]; type: functional
[4] = A cytotoxicity screen of small molecule inhibitors of the PhoP region in Salmonella typhi identified in the primary screen. [Related pubchem assays: 1850, 1864, 1985 ]; type: functional
Paired box protein Pax-8 = Paired box protein Pax-8 (Homo sapiens, UniProt Q06710); assay: inhibitors of PAX8-driven TPO luciferase reporter, dose response, RMG-I cells, cherry-pick (AID 687027); type: functional, cell-based;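 note: luciferase reporter driven by Pax8 target thyroperoxidase promoter measured by SteadyGlo luminescence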
Paired box protein Pax-8, sequence (Q06710 whole entry, the tested form may be a part): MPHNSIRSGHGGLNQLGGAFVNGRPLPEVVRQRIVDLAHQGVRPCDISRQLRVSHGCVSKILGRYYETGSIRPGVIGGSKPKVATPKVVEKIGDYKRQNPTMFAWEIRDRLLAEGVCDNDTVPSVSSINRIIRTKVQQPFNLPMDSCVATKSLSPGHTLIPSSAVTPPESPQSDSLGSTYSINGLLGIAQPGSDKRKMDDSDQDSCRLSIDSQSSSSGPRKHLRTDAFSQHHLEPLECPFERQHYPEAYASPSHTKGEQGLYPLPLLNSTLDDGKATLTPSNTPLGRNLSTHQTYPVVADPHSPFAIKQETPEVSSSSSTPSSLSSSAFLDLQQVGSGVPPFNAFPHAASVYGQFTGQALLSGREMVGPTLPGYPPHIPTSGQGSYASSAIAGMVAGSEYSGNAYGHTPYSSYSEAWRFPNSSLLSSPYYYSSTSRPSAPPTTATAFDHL

[5] = biological target: Disintegrin and metalloproteinase domain-containing protein 17 (Homo sapiens, UniProt P78536); assay: exosite inhibitors of ADAM17, dose response, biochemical (AID 743260)
Disintegrin and metalloproteinase domain-containing protein 17, sequence (P78536 whole entry, the tested form may be a part): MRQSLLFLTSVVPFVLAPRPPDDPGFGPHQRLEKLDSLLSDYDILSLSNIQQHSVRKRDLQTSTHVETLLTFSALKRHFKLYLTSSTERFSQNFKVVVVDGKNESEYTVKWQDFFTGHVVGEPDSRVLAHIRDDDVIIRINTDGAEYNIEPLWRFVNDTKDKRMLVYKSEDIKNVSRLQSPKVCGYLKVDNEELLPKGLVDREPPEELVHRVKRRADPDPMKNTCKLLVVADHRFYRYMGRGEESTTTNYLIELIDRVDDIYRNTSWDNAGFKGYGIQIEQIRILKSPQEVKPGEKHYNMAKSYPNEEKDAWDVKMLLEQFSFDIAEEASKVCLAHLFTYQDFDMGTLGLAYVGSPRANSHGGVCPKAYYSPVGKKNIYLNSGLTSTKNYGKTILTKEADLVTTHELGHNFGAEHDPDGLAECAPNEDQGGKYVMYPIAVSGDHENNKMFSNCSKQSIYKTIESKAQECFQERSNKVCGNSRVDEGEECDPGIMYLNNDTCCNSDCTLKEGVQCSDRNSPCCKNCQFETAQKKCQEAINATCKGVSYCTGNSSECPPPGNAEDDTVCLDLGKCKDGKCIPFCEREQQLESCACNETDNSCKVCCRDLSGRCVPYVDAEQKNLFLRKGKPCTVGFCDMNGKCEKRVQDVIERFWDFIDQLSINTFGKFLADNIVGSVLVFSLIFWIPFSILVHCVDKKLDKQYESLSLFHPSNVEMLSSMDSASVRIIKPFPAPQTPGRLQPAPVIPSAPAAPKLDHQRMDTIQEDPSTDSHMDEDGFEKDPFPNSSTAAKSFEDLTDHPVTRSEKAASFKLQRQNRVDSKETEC

Cytochrome P450 2C19, sequence (P33261 whole entry): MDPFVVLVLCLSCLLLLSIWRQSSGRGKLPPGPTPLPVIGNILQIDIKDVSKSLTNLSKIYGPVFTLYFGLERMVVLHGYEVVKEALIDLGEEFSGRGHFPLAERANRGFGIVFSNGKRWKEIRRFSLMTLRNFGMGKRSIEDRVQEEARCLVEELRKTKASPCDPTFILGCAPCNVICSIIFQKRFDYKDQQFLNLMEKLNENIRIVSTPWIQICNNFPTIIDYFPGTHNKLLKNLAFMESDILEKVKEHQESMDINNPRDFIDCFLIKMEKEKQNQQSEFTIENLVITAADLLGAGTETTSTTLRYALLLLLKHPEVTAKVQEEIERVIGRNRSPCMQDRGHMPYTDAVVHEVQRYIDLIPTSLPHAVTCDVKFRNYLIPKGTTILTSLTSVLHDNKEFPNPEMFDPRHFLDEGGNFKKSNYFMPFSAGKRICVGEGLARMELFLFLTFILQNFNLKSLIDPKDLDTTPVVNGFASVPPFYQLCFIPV

**Q.** With CCNc1ncc2nc(-c3ccc(Cl)cc3)c(=O)n(Cc3ccc(F)cc3)c2n1 as the compound, how does the AC50 (Cytochrome P450 2C19) read?
**A.** inconclusive

**Q.** And the AC50 (Cytochrome P450 1A2)?
**A.** 12.6 µM (inconclusive)

**Q.** And the AC50 (Cytochrome P450 3A4)?
**A.** inconclusive

**Q.** Which AC50 (HeLa) does the source give for CCC(=O)NCCc1nc2cc(NC(=O)c3ccc(Cl)cc3)ccc2n1C here?
**A.** 250 µM (active)

**Q.** Which AC50 (Escherichia coli) does the source give for O=C(CCc1nc2cccnc2n1Cc1ccccc1)N1CCOCC1 here?
**A.** 28.4 µM (active)

**Q.** For Cc1ccc(S(=O)(=O)NCC2CCC(C(=O)O)CC2)cc1 (centres undefined), which AC50 (Cytochrome P450 2C9) is on record?
**A.** 100 nM (inconclusive)

**Q.** And the AC50 (Cytochrome P450 3A4)?
**A.** inconclusive

**Q.** Which EC50 (HEK293 [1]) does the source give for Cc1ccc(NC(=O)CSCC(=O)Nc2ccccc2N2CCCCC2)cc1 here?
**A.** > 59.6 µM (inactive)

**Q.** And the EC50 (HEK293 [2])?
**A.** > 59.6 µM (inactive)

**Q.** For O=C(CNc1cccc(F)c1)N1CCc2ccccc2C1, which AC50 (HeLa) is on record?
**A.** 157 µM (active)

**Q.** Which IC50 (Exodeoxyribonuclease V) does the source give for FC(F)Oc1ccc(NC(S)=NCc2nc3ccccc3[nH]2)cc1 here?
**A.** > 119 µM (inactive)

**Q.** What about the IC50 [3] of the same compound?
**A.** > 119 µM (inactive)

**Q.** For COc1ccc(N(CC(=O)NCc2ccc(Cl)cc2)S(=O)(=O)c2ccccc2[N+](=O)[O-])c(OC)c1, which AC50 (Escherichia coli) is on record?
**A.** 23.3 µM (active)

**Q.** For COc1ccccc1NC(=O)N1CCC(c2nnc(SCC(N)=O)n2C)CC1, which AC50 (Cytochrome P450 2C19) is on record?
**A.** inconclusive

**Q.** What about the AC50 (Cytochrome P450 3A4) of the same compound?
**A.** inconclusive

**Q.** For Cc1cc(C(=O)CN2C(=O)NC3(CCCCC3C)C2=O)c(C)n1Cc1cccs1 (centres undefined), which AC50 (HeLa) is on record?
**A.** > 350 µM (inactive)

**Q.** With Cc1ccc(C)c(N2CCN(c3ccc4cc(S(=O)(=O)N5CCCCC5)ccc4n3)CC2)c1 as the compound, how does the AC50 (Escherichia coli) read?
**A.** 27.6 µM (active)

**Q.** What does the source list for CCOC(=O)c1c(CSc2ccccc2)n(C)c2cc(Br)c(O)c(CN(C)C)c12 [UMIFENOVIR]?
**A.** EC50 (HEK293 [1]): > 59.7 µM (inactive); EC50 (HEK293 [2]): > 59.7 µM (inactive)

**Q.** With CCCCCC(CC(=O)NO)C(=O)NC(C(=O)N1CCCC1CO)C(C)C (centres undefined) as the compound, how does the EC50 [4] read?
**A.** > 50 µM (active)

**Q.** What about the IC50 (Exodeoxyribonuclease V) of the same compound?
**A.** > 39.5 µM (inactive)

**Q.** What about the IC50 [3] of the same compound?
**A.** 77.6 µM (inactive)

**Q.** What about the AC50 (Paired box protein Pax-8) of the same compound?
**A.** 5.27 µM (active)

**Q.** And the IC50 [5]?
**A.** 3.59 µM (active)
